# Tests used:
# Test in all cases: Test E preemergence
# Type in all cases: in vivo
# Conditions in all cases: scale 0 to 100
# [1] = test system: fall panicum (Panicum dichotomiflorum)
# Procedure, shortened: (§1)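 Visual ratings from 0 = no effect to 100 = complete control, scored against untreated controls after 14 to 21 days in the greenhouse. Compounds, in a non-phytotoxic solvent mix with surfactant, went onto silt loam soil right after sowing (preemergence) or onto 2–18 cm plants at the 1- to 4-leaf stage (postemergence).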
# [2] = test system: Brazilian crabgrass (Digitaria horizontalis)
# Procedure, shortened: as §1
# [3] = test system: sandbur (southern sandbur, Cenchrus echinatus)
# Procedure, shortened: as §1
# [4] = test system: yellow nutsedge (Cyperus esculentus)
# Procedure, shortened: as §1
# [5] = test system: goosegrass (Eleusine indica)
# Procedure, shortened: as §1
# [6] = test system: barnyardgrass (Echinochloa crus-galli)
# Procedure, shortened: as §1
# [7] = test system: hairy beggarticks (Bidens pilosa)
# Procedure, shortened: as §1
# [8] = test system: waterhemp (common waterhemp, Amaranthus rudis)
# Procedure, shortened: as §1
# [9] = test system: lambsquarters (Chenopodium album)
# Procedure, shortened: as §1
# [10] = test system: green foxtail (Setaria viridis)
# Procedure, shortened: as §1
# [11] = test system: morningglory (Ipomoea coccinea)
# Procedure, shortened: as §1
# [12] = test system: giant foxtail (Setaria faberii)
# Procedure, shortened: as §1
# [13] = test system: nightshade (eastern black nightshade, Solanum ptycanthum)
# Procedure, shortened: as §1
# soybean (Glycine max) = test system: soybean (Glycine max)
# Procedure, shortened: as §1
# [14] = test system: Italian ryegrass (Lolium multiflorum)
# Procedure, shortened: as §1
# corn (Zea mays) = test system: corn (Zea mays)
# Procedure, shortened: as §1
# [15] = test system: field bindweed (Convolvulus arvensis)
# Procedure, shortened: as §1
# [16] = test system: arrowleaf sida (Sida rhombifolia)
# Procedure, shortened: as §1
# [17] = test system: dayflower (Virginia (VA) dayflower, Commelina virginica)
# Procedure, shortened: as §1
# [18] = test system: Surinam grass (Brachiaria decumbens)
# Procedure, shortened: as §1
# [19] = test system: palmer pigweed (Amaranthus palmeri)
# Procedure, shortened: as §1
compound,measurement,setting,value
"Clc1cnc(Oc2cccc(Br)c2Oc2ncc(Cl)cn2)nc1 [Compound 19, 2,2′-[[3-bromo-1,2-phenylene]bis(oxy)]bis[5-chloropyrimidine]]","Plant response rating, Panicum, Fall",[1]; 16 g ai/ha,100
same,"Plant response rating, Panicum, Fall",[1]; 31 g ai/ha,85
same,"Plant response rating, Panicum, Fall",[1]; 62 g ai/ha,98
same,"Plant response rating, Panicum, Fall",[1]; 125 g ai/ha,100
same,"Plant response rating, Crabgrass, Brazil",[2]; 16 g ai/ha,0
same,"Plant response rating, Crabgrass, Brazil",[2]; 31 g ai/ha,40
same,"Plant response rating, Crabgrass, Brazil",[2]; 62 g ai/ha,100
same,"Plant response rating, Crabgrass, Brazil",[2]; 125 g ai/ha,100
same,"Plant response rating, Sandbur",[3]; 16 g ai/ha,0
same,"Plant response rating, Sandbur",[3]; 31 g ai/ha,0
same,"Plant response rating, Sandbur",[3]; 62 g ai/ha,0
same,"Plant response rating, Sandbur",[3]; 125 g ai/ha,20
same,"Plant response rating, Nutsedge, Yellow",[4]; 16 g ai/ha,0
same,"Plant response rating, Nutsedge, Yellow",[4]; 31 g ai/ha,0
same,"Plant response rating, Nutsedge, Yellow",[4]; 62 g ai/ha,0
same,"Plant response rating, Nutsedge, Yellow",[4]; 125 g ai/ha,20
same,"Plant response rating, Goosegrass",[5]; 16 g ai/ha,5
same,"Plant response rating, Goosegrass",[5]; 31 g ai/ha,75
same,"Plant response rating, Goosegrass",[5]; 62 g ai/ha,90
same,"Plant response rating, Goosegrass",[5]; 125 g ai/ha,98
same,"Plant response rating, Barnyardgrass",[6]; 16 g ai/ha,0
same,"Plant response rating, Barnyardgrass",[6]; 31 g ai/ha,0
same,"Plant response rating, Barnyardgrass",[6]; 62 g ai/ha,20
same,"Plant response rating, Barnyardgrass",[6]; 125 g ai/ha,70
same,"Plant response rating, Beggarticks",[7]; 16 g ai/ha,0
same,"Plant response rating, Beggarticks",[7]; 31 g ai/ha,0
same,"Plant response rating, Beggarticks",[7]; 62 g ai/ha,0
same,"Plant response rating, Beggarticks",[7]; 125 g ai/ha,0
same,"Plant response rating, Waterhemp",[8]; 16 g ai/ha,65
same,"Plant response rating, Waterhemp",[8]; 31 g ai/ha,65
same,"Plant response rating, Waterhemp",[8]; 62 g ai/ha,100
same,"Plant response rating, Waterhemp",[8]; 125 g ai/ha,100
same,"Plant response rating, Lambsquarters",[9]; 16 g ai/ha,60
same,"Plant response rating, Lambsquarters",[9]; 31 g ai/ha,100
same,"Plant response rating, Lambsquarters",[9]; 62 g ai/ha,100
same,"Plant response rating, Lambsquarters",[9]; 125 g ai/ha,100
same,"Plant response rating, Foxtail, Green",[10]; 16 g ai/ha,0
same,"Plant response rating, Foxtail, Green",[10]; 31 g ai/ha,60
same,"Plant response rating, Foxtail, Green",[10]; 62 g ai/ha,98
same,"Plant response rating, Foxtail, Green",[10]; 125 g ai/ha,100
same,"Plant response rating, Morningglory",[11]; 16 g ai/ha,0
same,"Plant response rating, Morningglory",[11]; 31 g ai/ha,0
same,"Plant response rating, Morningglory",[11]; 62 g ai/ha,5
same,"Plant response rating, Morningglory",[11]; 125 g ai/ha,65
same,"Plant response rating, Foxtail, Giant",[12]; 16 g ai/ha,0
same,"Plant response rating, Foxtail, Giant",[12]; 31 g ai/ha,95
same,"Plant response rating, Foxtail, Giant",[12]; 62 g ai/ha,100
same,"Plant response rating, Foxtail, Giant",[12]; 125 g ai/ha,100
same,"Plant response rating, Nightshade",[13]; 16 g ai/ha,0
same,"Plant response rating, Nightshade",[13]; 31 g ai/ha,0
same,"Plant response rating, Nightshade",[13]; 62 g ai/ha,65
same,"Plant response rating, Nightshade",[13]; 125 g ai/ha,98
same,"Plant response rating, Soybean",soybean (Glycine max); 16 g ai/ha,0
same,"Plant response rating, Soybean",soybean (Glycine max); 31 g ai/ha,0
same,"Plant response rating, Soybean",soybean (Glycine max); 62 g ai/ha,0
same,"Plant response rating, Soybean",soybean (Glycine max); 125 g ai/ha,50
same,"Plant response rating, Ryegrass, Italian",[14]; 16 g ai/ha,0
same,"Plant response rating, Ryegrass, Italian",[14]; 31 g ai/ha,0
same,"Plant response rating, Ryegrass, Italian",[14]; 62 g ai/ha,65
same,"Plant response rating, Ryegrass, Italian",[14]; 125 g ai/ha,70
same,"Plant response rating, Corn",corn (Zea mays); 16 g ai/ha,0
same,"Plant response rating, Corn",corn (Zea mays); 31 g ai/ha,0
same,"Plant response rating, Corn",corn (Zea mays); 62 g ai/ha,20
same,"Plant response rating, Corn",corn (Zea mays); 125 g ai/ha,50
same,"Plant response rating, Field Bindweed",[15]; 16 g ai/ha,0
same,"Plant response rating, Field Bindweed",[15]; 31 g ai/ha,0
same,"Plant response rating, Field Bindweed",[15]; 62 g ai/ha,0
same,"Plant response rating, Field Bindweed",[15]; 125 g ai/ha,10
same,"Plant response rating, Arrowleaf Sida",[16]; 16 g ai/ha,65
same,"Plant response rating, Arrowleaf Sida",[16]; 31 g ai/ha,40
same,"Plant response rating, Arrowleaf Sida",[16]; 62 g ai/ha,100
same,"Plant response rating, Arrowleaf Sida",[16]; 125 g ai/ha,100
same,"Plant response rating, Dayflower, VA",[17]; 16 g ai/ha,0
same,"Plant response rating, Dayflower, VA",[17]; 31 g ai/ha,0
same,"Plant response rating, Dayflower, VA",[17]; 62 g ai/ha,5
same,"Plant response rating, Dayflower, VA",[17]; 125 g ai/ha,10
same,"Plant response rating, Surinam Grass",[18]; 16 g ai/ha,0
same,"Plant response rating, Surinam Grass",[18]; 31 g ai/ha,0
same,"Plant response rating, Surinam Grass",[18]; 62 g ai/ha,10
same,"Plant response rating, Surinam Grass",[18]; 125 g ai/ha,10
same,"Plant response rating, Pigweed, Palmer",[19]; 16 g ai/ha,0
same,"Plant response rating, Pigweed, Palmer",[19]; 31 g ai/ha,70
same,"Plant response rating, Pigweed, Palmer",[19]; 62 g ai/ha,100
same,"Plant response rating, Pigweed, Palmer",[19]; 125 g ai/ha,100

# Source: patent US20170190671A1, “BIS(ARYL)CATECHOL DERIVATIVES AS HERBICIDES” (E I DU PONT DE NEMOURS AND COMPANY, priority 2014, published 2017)
